Active and inactive are the calls of the source. No rule for the calls is given here.
Target: Influenza A virus M2 proton channel (A/TW/4845/1999 H1N1)
Experiment: M2 proton channel binding, NMR based, influenza A virus H1N1 strain (AID 1549)
Conditions: NMR binding screen, M2 protein

| SMILES | Kd |
| --- | --- |
| Cc1noc(C)c1C(=O)Nc1sc(C)c(C)c1C#N | > 4 mM (inactive) |
| OCc1ccc(-c2cccs2)s1 | > 4 mM (inactive) |
| Cc1cc2c(=O)n(C)c(SCC(N)=O)nc2s1 | > 4 mM (inactive) |
| Cc1cc(CN2C(=O)c3ccccc3C2=O)on1 | > 4 mM (inactive) |
| O=C1NCCCC1C(=O)N1CCCCC1 (centres undefined) | > 4 mM (inactive) |
| O=C(O)c1cc2ccccc2s1 | > 4 mM (inactive) |
| N#Cc1ccccc1CSc1ccccn1 | > 4 mM (inactive) |
| CC(=O)N1CC2(C)CN(C(C)=O)CC(C)(C1)C2 | > 4 mM (inactive) |
| CC1=C(C(=O)Nc2ccccc2)SCCO1 | > 4 mM (inactive) |
| COc1ccc2c(c1O)-c1c(OC)c(OC)cc3c1[C@H](C2)N(C)CC3 | > 4 mM (inactive) |
| CNS(=O)(=O)c1cccs1 | > 4 mM (inactive) |
| Cc1nc2c(=O)[nH]c3ccccc3c2o1 | > 4 mM (inactive) |
| O=C(O)c1ccc(CN2CCOCC2)cc1 | > 4 mM (inactive) |
| Cc1ccc(S(=O)(=O)CC(N)=O)cc1 | > 4 mM (inactive) |
| Cc1cc(C(=O)O)n[nH]1 | > 4 mM (inactive) |
| O=C(Cc1c(F)cccc1Cl)Nc1ccncc1 | > 4 mM (inactive) |
| O=C1COc2ccccc2C(=O)N1 | > 4 mM (inactive) |
| O=c1n(-c2ccccc2)c(=O)n2n1CCCC2 | > 4 mM (inactive) |
| COc1c(C)c2c(c(O)c1C/C=C(\C)CCC(=O)O)C(=O)OC2 | > 4 mM (inactive) |
| O=C(NS(=O)(=O)c1ccccc1)c1ccccc1F | > 4 mM (inactive) |
| CC(=O)NC(O)C(=O)c1ccccc1 (centres undefined) | > 4 mM (inactive) |
| Fc1ccc2onc(C3CCNCC3)c2c1 | > 4 mM (inactive) |
| COc1cc2c(cc1O)CC1c3c(cc(O)c(OC)c3-2)CCN1C (centres undefined) | > 4 mM (inactive) |
| Nc1nc(SCc2ccccc2)ns1 | > 4 mM (inactive) |

| SMILES | Kd |
| --- | --- |
| Cn1cccc1C=C1C(=O)NC(=S)NC1=O | > 4 mM (inactive) |
| CC(=O)Nc1ccc(N2C(=O)C=CC2=O)cc1C | > 4 mM (inactive) |
| CC(=O)Nc1ccc(N2CCOCC2)cc1 | > 4 mM (inactive) |
| CNS(=O)(=O)c1ccc2[nH]c(=O)[nH]c2c1 | > 4 mM (inactive) |
| O=C(O)c1cc2ccccc2[nH]1 | > 4 mM (inactive) |
| CC(C)c1ccc2c(c1)CCC1C(C)(C(N)=O)CCCC21C (centres undefined) | > 4 mM (inactive) |
| CC1=C2[C@H]3OC(=O)[C@@H](C)[C@@H]3CC[C@@]2(C)C=CC1=O | > 4 mM (inactive) |
| C=CC(C1=CC(=O)C=CC1=O)c1ccccc1 (centres undefined) | > 4 mM (inactive) |
| COc1ccc(-c2coc3cc(O)ccc3c2=O)c(O)c1O | > 4 mM (inactive) |
| CC1=C(C(N)=O)C(c2cccs2)C(C(N)=O)=C(C)N1 | > 4 mM (inactive) |
| CC(=O)Nc1ccc(NC(=O)c2ccnn2C)cc1 | > 4 mM (inactive) |
| NC1=C(c2ccccc2)C(=O)c2ccccc21 | > 4 mM (inactive) |
| NC(=O)C1CCN(C(=O)CN2CCc3ccccc32)CC1 | > 4 mM (inactive) |
| O=C1c2ccccc2C(=O)N1CCc1ccccn1 | > 4 mM (inactive) |
| Cn1cc(C(=O)N/N=C/c2ccccc2)ccc1=O | > 4 mM (inactive) |
| O=C(NC1=NCCS1)c1ccc2snnc2c1 | > 4 mM (inactive) |
| CNC(=S)Nc1ccc(OC)cc1C | > 4 mM (inactive) |
| Cc1nn(C)c(C)c1C(=O)O | > 4 mM (inactive) |
| O=C1CSC(c2ccc3c(c2)OCO3)N1 (centres undefined) | > 4 mM (inactive) |
| CN(C)c1ccc(NC(=O)CC(C(=O)O)N(C)C)cc1 (centres undefined) | > 4 mM (inactive) |
| COc1c2c(cc3c1OCO3)C13C=C[C@H](OC)CC1N(C2)CC3O (some centres undefined) | > 4 mM (inactive) |
| CCCCCCCCCCCC[C@H](C(=O)O)[C@@H](C)C(=O)O | > 4 mM (inactive) |
| Cc1nn(C)c(N2CCOCC2)c1N | > 4 mM (inactive) |
| Cn1nnc2cc(C(=O)O)ccc21 | > 4 mM (inactive) |

| SMILES | Kd |
| --- | --- |
| CN=C1SC(CC(=O)Nc2ccc(O)cc2)C(=O)N1C (centres undefined) | > 4 mM (inactive) |
| COc1cc(C(C)=O)ccc1OCC(O)Cn1ccnc1 (centres undefined) | > 4 mM (inactive) |
| Cc1noc(C)c1CSc1nc2ccccc2[nH]1 | > 4 mM (inactive) |
| O=c1c(Cl)c(NCCO)ncn1-c1ccccc1 | > 4 mM (inactive) |
| N#CCSc1nnc2ccc3ccccc3n12 | > 4 mM (inactive) |
| CN1CCC(NC(=O)C2CCCO2)CC1 (centres undefined) | > 4 mM (inactive) |
| NCC(N)C(=O)c1ccccc1 (centres undefined) | > 4 mM (inactive) |
| CCn1ccc(C(=O)Nc2nccs2)n1 | > 4 mM (inactive) |
| COC(=O)C1=CO[C@@H](O[C@@H]2O[C@H](CO)[C@@H](O)[C@H](O)[C@H]2O)[C@@H]2[C@@H](C)[C@@H](O)C[C@H]12 | > 4 mM (inactive) |
| OCc1nc2ccccc2s1 | > 4 mM (inactive) |
| O=C(NCc1n[nH]c(=O)c2ccccc12)C1CC1 | > 4 mM (inactive) |
| Cc1ccc(-c2nn(C)c(=O)c3ccccc23)cc1CO | > 4 mM (inactive) |
| CNC(=O)c1ccc([N+](=O)[O-])cc1Cl | > 4 mM (inactive) |
| O=C(c1cc(Cl)cc(Cl)c1)N1CCOCC1 | > 4 mM (inactive) |
| NC(=O)C1CCN(Cc2ccccc2)CC1 | > 4 mM (inactive) |
| CC(C)C(=O)NC(=S)N1CCOCC1 | > 4 mM (inactive) |
| O=C1CS/C(=N/N=C/c2cccs2)N1 | > 4 mM (inactive) |
| Cc1cc(C(F)(F)F)n2nc(C(=O)O)c(Cl)c2n1 | > 4 mM (inactive) |
| COc1cc2c(c(OC)c1OC)-c1ccc(O)c(=O)cc1[C@@H](NC(C)=O)CC2 | > 4 mM (inactive) |
| O=S(=O)(Nc1ccc2c(c1)OCCO2)c1cccs1 | > 4 mM (inactive) |
| Nc1ccc(S(=O)(=O)Nc2ccc(F)cc2F)cc1 | > 4 mM (inactive) |
| c1ccc(-c2nnc(CNCc3ccco3)o2)cc1 | > 4 mM (inactive) |
| O=C1C=CC(=O)c2c(O)cccc21 | > 4 mM (inactive) |
| CCCN1CCC(N2CCC(O)CC2)CC1 | > 4 mM (inactive) |

| SMILES | Kd |
| --- | --- |
| O=C1C2CC=C(Cl)CC2C(=O)N1c1ccccc1O (centres undefined) | > 4 mM (inactive) |
| O=c1c2ccccc2ncn1C1CCCCC1 | > 4 mM (inactive) |
| Cc1cc2ncn(S(=O)(=O)N3CCOCC3)c2cc1C | > 4 mM (inactive) |
| OCc1ccc(CN2CCOCC2)cc1 | > 4 mM (inactive) |
| Nc1nncn1C(=O)c1ccccc1Cl | > 4 mM (inactive) |
| Clc1ncnc2[nH]ncc12 | > 4 mM (inactive) |
| Nc1cc(=O)[nH]c(=O)n1-c1ccccc1 | > 4 mM (inactive) |
| CC(=O)Nc1cnn(-c2ccccc2)c(=O)c1Cl | > 4 mM (inactive) |
| Cc1occc1C(=O)NCc1ccccc1F | > 4 mM (inactive) |
| COc1ccc(-c2c(OC)c3c(OC)c4c(cc3oc2=O)OC(C)(C)C=C4)cc1 | > 4 mM (inactive) |
| O=C(O)Cn1cc(C(=O)C2CC2)c2ccccc21 | > 4 mM (inactive) |
| COCCn1cnc2cc(C)c(C)cc21 | > 4 mM (inactive) |
| COc1ccc2[nH]c(O)c(NC(C)=O)c2c1 | > 4 mM (inactive) |
| Nc1ccccc1-c1nc2ccccc2[nH]1 | > 4 mM (inactive) |
| N/N=C/c1cccnc1 | > 4 mM (inactive) |
| CN(C)C(=O)Nc1ccc2c(c1)nnn2C | > 4 mM (inactive) |
| CC1(C)C2CC[C@]3(C)C(C(=O)C=C4[C@@H]5C[C@@](C)(C(=O)O)CC[C@]5(C)CC[C@]43C)[C@@]2(C)CC[C@@H]1O (some centres undefined) | > 4 mM (inactive) |
| C[n+]1cc2c3c(ccc2c2ccc4cc5c(cc4c21)OCO5)OCO3 | > 4 mM (inactive) |
| O=C(O)Cc1csc(-c2ccccc2)n1 | > 4 mM (inactive) |
| O=C(O)/C=C/c1ccc(O)c(O)c1 | > 4 mM (inactive) |
| O=c1[nH]c(=O)n(-c2ccc(F)cc2)c(O)c1/C=C1/C=CC=N1 | > 4 mM (inactive) |
| O=S(=O)(Cc1ccccc1Cl)Nc1ccccn1 | > 4 mM (inactive) |
| COC(CC(=O)O)c1nc2ccccc2s1 (centres undefined) | > 4 mM (inactive) |
| Nc1ccc(C2SCCS2)cc1 | > 4 mM (inactive) |

| SMILES | Kd |
| --- | --- |
| CCC(C)OC1CCS(=O)(=O)C1 (centres undefined) | > 4 mM (inactive) |
| Cc1ccc(-c2c(C)n([O-])c(C)c(C)[n+]2=O)cc1 | > 4 mM (inactive) |
| O=C(NC1CCS(=O)(=O)C1)C1CCCCC1 (centres undefined) | > 4 mM (inactive) |
| O=C(O)CS(=O)(=O)c1ccccc1 | > 4 mM (inactive) |
| CC(=O)Nc1ccc2c(C)cc(=O)[nH]c2c1 | > 4 mM (inactive) |
| O=c1c[n+]([O-])c2ccccc2n1OCc1ccccc1 | > 4 mM (inactive) |
| CC12OC(=O)CC3C(C)(C)[C@H](O)C=C[C@]3(C)C1CC[C@]1(C)C2=CC(=O)O[C@H]1c1ccoc1 (some centres undefined) | > 4 mM (inactive) |
| O=C(O)c1cccnc1N1CCCC1 | > 4 mM (inactive) |
| O=C1CSC(=Nc2ccc(F)cc2)N1 | > 4 mM (inactive) |
| O=S(=O)(O)c1nc2ccccc2[nH]1 | > 4 mM (inactive) |
| COCc1cc(=O)oc2cc(O)c(Cl)cc12 | > 4 mM (inactive) |
| Cc1cc(=O)n2ncn(Cc3ccccc3)c2n1 | > 4 mM (inactive) |
| O=c1[nH]cc(N=Cc2ccc(F)cc2)c(=O)[nH]1 | > 4 mM (inactive) |
| COc1ccc2c(=O)c(OC)c(-c3ccccc3)oc2c1 | > 4 mM (inactive) |
| CN1CCN(C2CCN(Cc3ccccc3)CC2)CC1 | > 4 mM (inactive) |
| O=C(NCCO)c1cc2ccccc2c(=O)s1 | > 4 mM (inactive) |
| Cc1ccc(/C=N/n2c(C)nnc2C)cc1 | > 4 mM (inactive) |
| CC(C)CNc1cc(=O)n(C)c(=O)n1C | > 4 mM (inactive) |
| CON(C)C(=O)Nc1ccc(Cl)cc1 | > 4 mM (inactive) |
| C[C@@H]1OC(O[C@H]2[C@H](OC(=O)[C@]34CCC(C)(C)CC3C3=CCC5[C@@]6(C)CC[C@H](OC7O[C@@H](C)[C@H](O[C@@H]8OC[C@@H](O)[C@H](O)[C@H]8O)[C@@H](O)[C@H]7O)C(C)(C)C6CC[C@@]5(C)[C@]3(C)CC4O)OC[C@H](O)[C@H]2O)[C@H](O)[C@H](O)[C@H]1O[C@@H]1O[C@H](CO)[C@@H](O)[C@H](O)[C@H]1O (some centres undefined) | > 4 mM (inactive) |
| O=S(=O)(N1CCOCC1)n1nnc2ccccc21 | > 4 mM (inactive) |
| c1ccc2nc3c(nc2c1)CCc1nonc1-3 | > 4 mM (inactive) |
| Nc1ccc(Cc2ccc(N)cc2)cc1 | > 4 mM (inactive) |
